The results in this text go back to patent US7405200B2, “Use of oxytocin for the preparation of a pharmaceutical composition against cancer in situ and cervicitis” (priority 2001, dated 2008).

The test concerns cancer in situ and cervicitis. The test is described as follows: Effect of Oxytocin on Cancer in Situ and Cervicitis in Humans (Pap smear test). It is filed as in vivo. The conditions noted are these: one patient with cancer in situ and cervicitis; oxytocin 1 mg/ml mixed with 1 ml cellulose gel intravaginally during five consecutive days. On the procedure:
Patients. 20 women, all aged 60–70 years, with postmenopausal disorders, participated in a double blind cross-over randomised protocol, which means that the patients receive both oxytocin and control treatment without knowing the order of the treatments.
Experimental procedure. The patients were treated with oxytocin 1 mg/ml mixed with 1 ml cellulose gel intravaginally during five consecutive days to relieve the postmenopausal disorders. However, it was discovered that one of the patients suffered from cancer in situ and cervicitis before the oxytocin treatment. This was established by the fact that the patient underwent a Pap smear test before the oxytocin treatment. In this test, cells desquamated from the genital epithelium are obtained by smears, fixed and stained, and examined under the microscope for evidence of pathologic changes. After the oxytocin treatment, the patient also underwent a Pap smear test.

Consider oxytocin, for which the “results of the Pap smear tests before and after oxytocin administration” value was “the cancer in situ and cervicitis was removed”.
